Source: patent US20090209497A1, “METHOD OF TREATING LYMPHANGIOLEIOMYOMATOSIS (LAM)” (priority 2005, published 2009)

Test: Doxycycline therapy of a patient with LAM: clinical improvement (FEV1, O2 saturation, 6-min walk test)
Type: in vivo, human
Details: person with LAM, doxycycline 20 mg/day escalated up to 100 mg/day
From the text: FIGS. 1A-1B show successful treatment of LAM with doxycycline: monitoring therapeutic efficacy and measuring clinical improvement. […] Data points represent single measurements taken prior to or during doxycycline therapy. A person was diagnosed with LAM in 1975 after a partial nephrectomy for angiomyolipoma. Although stable for many years, their condition had deteriorated with an FEV1 as low as 0.48 liters (21 percent of predicted), and they were placed on the lung transplant list. […] Based on these elevated MMP levels, doxycycline was initiated at an initial dose of 20 mg/day. Dose escalation (up to 100 mg/day) was determined by monthly urinary MMP profiling (FIG. 1A) and how well the drug was tolerated. […] Telegraphic speech, which was present, resolved.

For `C[C@H]1c2cccc(O)c2C(=O)C2=C(O)[C@]3(O)C(=O)C(C(N)=O)=C(O)[C@@H](N(C)C)[C@@H]3[C@@H](O)[C@@H]21` [doxycycline], the “FEV1, percent of predicted” value (before treatment 21 percent of predicted) was 35% of predicted and the “FEV1 (lung capacity)” value (before treatment as low as 0.48 liters) was 0.91 L.
